Laboratory results published in the kinase profiling compilation of Christmann-Franck et al. (2016).

Experiments:
Details in all cases: compound 10.0 µM
[1] = molecular target: MAPK12 (human) (UniProt P53778)
[2] = molecular target: PRKACG (human) (UniProt P22612)
[3] = molecular target: STK4 (human) (UniProt Q13043)
[4] = molecular target: CDK4 CCND3 (human) (UniProt P11802+P30281)
[5] = molecular target: MAP3K9 (human) (UniProt P80192)
[6] = molecular target: CLK3 (human) (UniProt P49761)
[7] = molecular target: PIM1 (human) (UniProt P11309)
[8] = molecular target: MAP3K3 (human) (UniProt Q99759)
[9] = molecular target: PRKCB2 (human) (UniProt P05771)
[10] = molecular target: TSSK2 (human) (UniProt Q96PF2)
[11] = molecular target: MAPK13 (human) (UniProt O15264)
[12] = molecular target: PHKG2 (human) (UniProt P15735)
[13] = molecular target: MYO3B (human) (UniProt Q8WXR4)
[14] = molecular target: EPHB3 (human) (UniProt P54753)
[15] = molecular target: HIPK2 (human) (UniProt Q9H2X6)
[16] = molecular target: MAPKAPK3 (human) (UniProt Q16644)
[17] = molecular target: TSSK1B (human) (UniProt Q9BXA7)
Chain of TSSK1B (human) (Q9BXA7 whole entry, looked up): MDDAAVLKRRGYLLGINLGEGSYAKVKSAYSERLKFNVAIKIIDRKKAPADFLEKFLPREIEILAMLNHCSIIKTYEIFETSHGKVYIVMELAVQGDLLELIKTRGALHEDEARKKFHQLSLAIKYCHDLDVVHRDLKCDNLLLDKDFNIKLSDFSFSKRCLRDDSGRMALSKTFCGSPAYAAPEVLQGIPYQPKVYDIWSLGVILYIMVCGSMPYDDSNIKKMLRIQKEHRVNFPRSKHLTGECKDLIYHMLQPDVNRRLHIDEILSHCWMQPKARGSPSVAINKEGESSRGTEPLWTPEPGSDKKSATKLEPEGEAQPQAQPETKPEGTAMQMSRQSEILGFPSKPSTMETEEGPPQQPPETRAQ

[18] = molecular target: MAPK1 (human) (UniProt P28482)
Chain of MAPK1 (human) (P28482 whole entry, looked up): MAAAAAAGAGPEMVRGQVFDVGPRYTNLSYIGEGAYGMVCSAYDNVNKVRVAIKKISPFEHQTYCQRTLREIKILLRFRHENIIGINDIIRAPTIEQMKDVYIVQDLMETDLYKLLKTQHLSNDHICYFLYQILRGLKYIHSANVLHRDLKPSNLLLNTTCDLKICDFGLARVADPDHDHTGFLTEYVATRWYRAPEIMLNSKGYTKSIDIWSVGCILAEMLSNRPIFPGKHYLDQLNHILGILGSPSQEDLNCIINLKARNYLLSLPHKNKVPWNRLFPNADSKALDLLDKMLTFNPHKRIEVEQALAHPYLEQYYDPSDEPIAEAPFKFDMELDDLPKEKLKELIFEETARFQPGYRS

[19] = molecular target: CSF1R (human) (UniProt P07333)
[20] = molecular target: BRSK1 (human) (UniProt Q8TDC3)
[21] = molecular target: ACVR1 (human) (UniProt Q04771)
[22] = molecular target: FGFR4 (human) (UniProt P22455)
[23] = molecular target: MYLK2 (human) (UniProt Q9H1R3)
[24] = molecular target: NEK9 (human) (UniProt Q8TD19)
[25] = molecular target: PRKCG (human) (UniProt P05129)
[26] = molecular target: EPHA7 (human) (UniProt Q15375)
[27] = molecular target: PRKG2 (human) (UniProt Q13237)
[28] = molecular target: CAMK2G (human) (UniProt Q13555)
[29] = molecular target: NEK6 (human) (UniProt Q9HC98)
[30] = molecular target: MAPK9 (human) (UniProt P45984)
Chain of MAPK9 (human) (P45984 whole entry, looked up): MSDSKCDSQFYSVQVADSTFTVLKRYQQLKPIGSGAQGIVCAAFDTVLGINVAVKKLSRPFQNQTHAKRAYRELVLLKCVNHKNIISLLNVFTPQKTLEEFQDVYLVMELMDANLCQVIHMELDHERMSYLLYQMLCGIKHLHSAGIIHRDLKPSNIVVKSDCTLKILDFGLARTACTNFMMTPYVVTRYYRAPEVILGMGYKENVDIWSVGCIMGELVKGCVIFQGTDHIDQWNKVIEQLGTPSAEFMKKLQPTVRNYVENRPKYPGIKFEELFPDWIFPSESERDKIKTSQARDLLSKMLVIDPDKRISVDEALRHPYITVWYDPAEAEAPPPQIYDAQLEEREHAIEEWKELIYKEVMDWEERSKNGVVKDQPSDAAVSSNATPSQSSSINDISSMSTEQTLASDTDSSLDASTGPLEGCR

[31] = molecular target: INSR (human) (UniProt P06213)
[32] = molecular target: ZAP70 (human) (UniProt P43403)
[33] = system: LYN (human), P07948 [23-43 del]
Chain of LYN (human), P07948 [23-43 del] (P07948 whole entry, looked up, stated change not applied): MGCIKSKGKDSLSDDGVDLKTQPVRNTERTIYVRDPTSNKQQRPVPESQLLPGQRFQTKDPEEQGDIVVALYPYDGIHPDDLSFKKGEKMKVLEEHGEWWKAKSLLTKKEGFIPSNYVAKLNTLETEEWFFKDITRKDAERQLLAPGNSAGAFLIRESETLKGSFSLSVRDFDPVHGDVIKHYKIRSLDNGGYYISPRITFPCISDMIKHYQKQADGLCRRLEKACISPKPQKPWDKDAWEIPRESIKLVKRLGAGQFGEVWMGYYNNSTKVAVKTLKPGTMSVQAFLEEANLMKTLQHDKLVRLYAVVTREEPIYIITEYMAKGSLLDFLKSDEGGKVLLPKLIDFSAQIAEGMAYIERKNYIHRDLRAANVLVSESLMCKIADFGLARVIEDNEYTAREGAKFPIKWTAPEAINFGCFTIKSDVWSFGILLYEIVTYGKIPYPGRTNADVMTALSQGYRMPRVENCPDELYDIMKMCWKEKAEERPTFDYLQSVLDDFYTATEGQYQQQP

[34] = molecular target: NEK11 (human) (UniProt Q8NG66)
[35] = molecular target: MATK (human) (UniProt P42679)
[36] = molecular target: RPS6KB1 (human) (UniProt P23443)
[37] = molecular target: RIPK2 (human) (UniProt O43353)
[38] = molecular target: TTK (human) (UniProt P33981)
[39] = molecular target: MAP3K8 (human) (UniProt P41279)
Chain of MAP3K8 (human) (P41279 whole entry, looked up): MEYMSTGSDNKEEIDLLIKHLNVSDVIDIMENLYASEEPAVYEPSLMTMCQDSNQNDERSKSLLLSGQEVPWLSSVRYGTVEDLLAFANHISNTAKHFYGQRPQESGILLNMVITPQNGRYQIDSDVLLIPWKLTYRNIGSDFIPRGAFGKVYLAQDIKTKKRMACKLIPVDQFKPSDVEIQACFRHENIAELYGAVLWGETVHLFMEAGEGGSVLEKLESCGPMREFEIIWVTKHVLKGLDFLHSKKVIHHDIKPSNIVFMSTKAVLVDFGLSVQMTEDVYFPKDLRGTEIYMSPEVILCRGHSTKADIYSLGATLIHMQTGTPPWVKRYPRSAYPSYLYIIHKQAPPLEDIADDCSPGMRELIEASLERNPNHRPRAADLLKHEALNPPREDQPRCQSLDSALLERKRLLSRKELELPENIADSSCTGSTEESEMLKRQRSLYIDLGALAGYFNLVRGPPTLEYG

[40] = molecular target: EPHA4 (human) (UniProt P54764)
[41] = molecular target: FES (human) (UniProt P07332)
[42] = molecular target: FLT4 (human) (UniProt P35916)
Chain of FLT4 (human) (P35916 whole entry, looked up): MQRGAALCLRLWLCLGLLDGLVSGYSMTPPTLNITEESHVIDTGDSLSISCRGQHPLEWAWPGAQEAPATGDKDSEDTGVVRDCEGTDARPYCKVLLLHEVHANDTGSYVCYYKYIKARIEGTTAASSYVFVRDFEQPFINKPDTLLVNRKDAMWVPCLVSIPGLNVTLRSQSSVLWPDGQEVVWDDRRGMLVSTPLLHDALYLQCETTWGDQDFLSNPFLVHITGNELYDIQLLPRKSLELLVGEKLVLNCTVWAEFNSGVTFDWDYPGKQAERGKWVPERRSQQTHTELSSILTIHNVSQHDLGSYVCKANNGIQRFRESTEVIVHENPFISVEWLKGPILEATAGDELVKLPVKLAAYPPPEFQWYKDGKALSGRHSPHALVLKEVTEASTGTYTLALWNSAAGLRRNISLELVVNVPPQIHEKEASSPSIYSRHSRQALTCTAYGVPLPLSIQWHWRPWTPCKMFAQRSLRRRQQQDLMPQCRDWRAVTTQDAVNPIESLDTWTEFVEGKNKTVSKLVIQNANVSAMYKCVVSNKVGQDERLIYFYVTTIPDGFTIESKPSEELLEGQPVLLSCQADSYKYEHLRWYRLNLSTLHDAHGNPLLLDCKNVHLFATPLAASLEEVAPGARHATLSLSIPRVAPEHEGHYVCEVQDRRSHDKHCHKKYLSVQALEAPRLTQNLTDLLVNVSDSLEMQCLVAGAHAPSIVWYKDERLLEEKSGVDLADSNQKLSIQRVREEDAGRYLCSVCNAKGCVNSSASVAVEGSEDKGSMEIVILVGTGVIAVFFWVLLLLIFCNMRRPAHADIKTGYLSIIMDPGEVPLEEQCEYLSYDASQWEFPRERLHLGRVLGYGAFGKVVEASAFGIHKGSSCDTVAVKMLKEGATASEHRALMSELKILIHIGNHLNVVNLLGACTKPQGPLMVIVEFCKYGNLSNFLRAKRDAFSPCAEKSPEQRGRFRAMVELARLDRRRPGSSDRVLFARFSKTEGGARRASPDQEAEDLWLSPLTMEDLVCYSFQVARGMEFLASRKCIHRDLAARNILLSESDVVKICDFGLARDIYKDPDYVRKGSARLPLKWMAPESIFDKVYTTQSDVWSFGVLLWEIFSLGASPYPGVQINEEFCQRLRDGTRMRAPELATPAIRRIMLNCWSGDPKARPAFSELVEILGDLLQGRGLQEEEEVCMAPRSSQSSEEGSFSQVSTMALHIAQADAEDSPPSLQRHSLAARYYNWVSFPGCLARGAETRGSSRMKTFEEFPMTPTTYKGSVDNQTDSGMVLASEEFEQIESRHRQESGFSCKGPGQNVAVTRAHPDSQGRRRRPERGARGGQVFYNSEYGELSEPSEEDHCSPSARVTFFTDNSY

[43] = molecular target: PRKCD (human) (UniProt Q05655)
Chain of PRKCD (human) (Q05655 whole entry, looked up): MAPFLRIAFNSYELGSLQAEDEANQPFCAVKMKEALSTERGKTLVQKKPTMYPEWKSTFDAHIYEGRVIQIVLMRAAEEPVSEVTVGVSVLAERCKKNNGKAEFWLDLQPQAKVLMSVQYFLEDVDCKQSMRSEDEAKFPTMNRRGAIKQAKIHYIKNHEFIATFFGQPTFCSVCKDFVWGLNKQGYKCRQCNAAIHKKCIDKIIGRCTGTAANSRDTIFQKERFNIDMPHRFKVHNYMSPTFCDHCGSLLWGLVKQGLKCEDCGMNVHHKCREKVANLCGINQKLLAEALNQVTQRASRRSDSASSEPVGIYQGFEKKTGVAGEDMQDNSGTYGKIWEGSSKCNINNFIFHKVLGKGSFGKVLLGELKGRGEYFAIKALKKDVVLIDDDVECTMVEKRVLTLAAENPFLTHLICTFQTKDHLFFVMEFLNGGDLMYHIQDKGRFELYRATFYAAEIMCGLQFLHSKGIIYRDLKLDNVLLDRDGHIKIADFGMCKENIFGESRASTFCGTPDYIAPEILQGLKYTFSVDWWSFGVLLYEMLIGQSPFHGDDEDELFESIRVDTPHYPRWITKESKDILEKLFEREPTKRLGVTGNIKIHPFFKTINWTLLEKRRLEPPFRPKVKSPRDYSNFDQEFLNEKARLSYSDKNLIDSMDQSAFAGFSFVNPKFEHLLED

[44] = molecular target: PLK1 (human) (UniProt P53350)

Structure (SMILES): CC[C@H](C)n1cc(C)c2c(C(=O)NCc3c(C)cc(C)[nH]c3=O)cc(-c3ccc(N4CCNCC4)nc3)cc21
- residual activity [1]: 97.5%
- residual activity [2]: 100%
- residual activity [3]: 97%
- residual activity [4]: 104%
- residual activity [5]: 92.5%
- residual activity [6]: 86%
- residual activity [7]: 102%
- residual activity [8]: 107%
- residual activity [9]: 94%
- residual activity [10]: 93.5%
- residual activity [11]: 95%
- residual activity [12]: 93.5%
- residual activity [13]: 92%
- residual activity [14]: 92.5%
- residual activity [15]: 90%
- residual activity [16]: 100%
- residual activity [17]: 102%
- residual activity [18]: 95%
- residual activity [19]: 95%
- residual activity [20]: 99.5%
- residual activity [21]: 92.5%
- residual activity [22]: 89%
- residual activity [23]: 96.5%
- residual activity [24]: 102%
- residual activity [25]: 91.5%
- residual activity [26]: 91.5%
- residual activity [27]: 97%
- residual activity [28]: 99.5%
- residual activity [29]: 95.5%
- residual activity [30]: 80.5%
- residual activity [31]: 95.5%
- residual activity [32]: 97.5%
- residual activity [33]: 92%
- residual activity [34]: 107%
- residual activity [35]: 95.5%
- residual activity [36]: 97%
- residual activity [37]: 95.5%
- residual activity [38]: 102%
- residual activity [39]: 95.5%
- residual activity [40]: 92%
- residual activity [41]: 99%
- residual activity [42]: 82.5%
- residual activity [43]: 102%
- residual activity [44]: 98.5%
